The record followed here is patent EP2875816A1, “N-(3-hydroxy-5,7-dimethyladamantan-1-yl)-2-(3-oxobenzo[d]isothiazol-2(3h)-yl)acetamide as a novel inhibitor for staphylococcus aureus sortase a” (Latvian Biomedical Research and Study Centre, priority 2013, dated 2015).

What is called MIC is the lowest concentration that inhibits growth of the organism. Usually IC50 stands for the concentration at which inhibition is half-maximal.

Converted amounts (≈) assume the structure as drawn.

One experiment relates to Staphylococcus aureus. The experiment can be described thus: Minimum inhibitory concentration (MIC), broth dilution micromethod. Type of experiment: cell-based. Conditions: 24 hours at 37 °C, complete inhibition of cell growth, OD 600 nm, read-out: MIC, S.aureus. The protocol: (§1) The MIC values of test compounds that inhibited cell growth of Gram-positive Staphylococcus aureus and S. epidermidis were determined by broth dilution micromethod. A series of solutions with a range from 0.1 µg/ml to 400 µg/ml were made in using a logarithmical phase culture with OD600 = 0.1 (corresponds to ~1.2 x 10^8 CFU/ml in 96-well plate standard. The plate was incubated at 37 °C for 24 hours and growth was assayed with a microplate reader by monitoring the absorption at 600 nm. All experiments were done in triplicate, and repeated three times.
(In broth dilution the organism is exposed to a series of concentrations in liquid medium.)

The next experiment concerns S. epidermidis. The experiment is described as above. To be noted: Staphylococcus epidermidis; 24 hours at 37 °C, complete inhibition of cell growth, OD 600 nm. Type of experiment: cell-based. The method, then: as §1
Experiment [1] deals with T1, S. aureus sortase A (SrtAΔN59, residues 60-206) (Staphylococcus aureus, UniProt Q2FV99).
T1 construct: expressed with an N-terminal deletion of 59 amino acid residues (SrtAΔN59, residues 60-206); made in house
The experiment can be described thus: SrtA enzyme FRET inhibition assay (dose-response, recombinant sortase A with FRET peptide substrate containing the LPETG motif). In kind it is biochemical. From the text:
The catalytically active recombinant sortase A enzyme used for these studies was expressed with an N-terminal deletion of 59 amino acid residues (SrtAΔN59, residues 60-206). The first step included high-throughput screening of potent S. aereus SrtA inhibitors and selection of new antibacterial substances as sortase A inhibitors. In order to identify potent inhibitors of S. aureus sortase A, a high-throughput screening (HTS) of a diverse library of 50,000 drug-like low-molecular weight molecules was performed, which led to the identification of novel promising drug candidates.
These assays included determination of 50% SrtA inhibition concentration (IC50) of the newly synthesized derivative in dose-response experiments using the recombinant sortase
A enzyme incubated with FRET peptide substrate containing the LPETG motif, minimal inhibitory concentration (MIC) test with two staphylococcal species to measure the antimicrobial efficacy of the new inhibitory molecule, and toxicity test using a normal mouse embryonic fibroblasts cell line NIH/3T3 to determine the cell growth IC50 inhibitory concentration.
Values are means ±SD (n = 5).

Experiment [2] has as its system NIH/3T3 mouse fibroblast cell line. Nature of the experiment: Cytotoxicity / cell growth inhibition, MTT test. To be noted: NIH3T3, 48 hours exposure, mean of three independent experiments ±SD. Type of experiment: cell-based. The method, then:
The growth inhibitory effect of the newly synthesized compound was studied on NIH/3T3mouse fibroblast cell line. NIH/3T3 cells were seeded into 96-well microplates with initial density of 1x10^4 cells per well in DMEM culture medium with 10% FCS. After 24 hours of incubation, cells were exposed to a graded series of concentrations of chemical compounds for additional 48 hours. The cell medium was removed and 100 µl of fresh culture medium without phenol red and 1 mM MTT solution was added to each well. After 3 hours of incubation, an equal volume of 1% SDS-HCl solution was added and plates were incubated for additional 4 hours. Absorbance was measured at 570 nm and the data were fitted to a four parameter variable slope equation to determine the IC50 value.
The cytotoxic response is dependent on the cell line tested and NIH/3T3 mouse fibroblasts are a well-characterized cellular model used to study toxicity and drug delivery processes. In the table 3 data are given as the mean of three independent experiments ±SD.
For orientation: Tetrazolium dyes change colour on reduction, which living cells bring about.

In the next experiment the target is T2, SrtA (Staphylococcus aureus, UniProt Q2FV99).
T2 construct: expressed with an N-terminal deletion of 59 amino acid residues (SrtAΔN59, residues 60-206); made in house
Nature of the experiment: Binding to SrtA monitored by 2D [15N,1H]-HSQC NMR spectroscopy, with dialysis. Conditions: 2D 15N-1H HSQC spectrum unchanged after dialysis against NMR buffer. The source says:
• Fig. 1 - represents the binding of a selected inhibitor N-(adamantan-1-yl)-2-(3-oxo-2,3-dihydro-1,2-benzothiazol-2-yl)acetamide to SrtA monitored by 2D [^15N,^1H]-HSQC NMR spectroscopy. (a) Spectrum of SrtA in absence of inhibitor. […] (a) SrtA active site after modification by inhibitor. The inhibitor (in cyan) and near-by side chains of SrtA are shown with sticks and labeled. Side chains are colored according to their type: hydrophobic in yellow, negatively charged in red, positively charged in blue and hydrophilic in grey. Hydrogens are omitted for clarity. […] (c) Molecular surface representation of SrtA in complex with inhibitor. It can be seen in the figure that the inhibitor occupies almost all volume of the substrate pocket, the majority of interactions are hydrophobic and hydrogen bond is at the R139.
Determination of the complex structure of selected inhibitor and sortase enzyme was performed by using the nuclear magnetic resonance (NMR) spectroscopy methods. The collected NMR data allowed to specify the structure of inhibitory complexes.
To verify that the selected inhibitor can react with a cysteine thiol (such as the SrtA active site C 184) we performed a reaction with cysteine in the NMR tube and observed the formation of a covalent adduct (Figure 2). The chemical structure of the product was verified using proton 1D and 2D NMR methods.

As for `CC12CC3(C)CC(O)(C1)CC(NC(=O)Cn1sc4ccccc4c1=O)(C2)C3` [N-(3-hydroxy-5,7-dimethyladamantan-1-yl)-2-(3-oxobenzo[d]isothiazol-2(3H)-yl)acetamide], the MIC with Staphylococcus aureus and in the experiment on S. epidermidis was 8 µg/mL (≈ 20.7 µM) in each case. In addition, the concentration for half-maximal inhibition (IC50) in experiment [1] came to 3.9 µM; in experiment [2] it was 8.1 µg/mL (≈ 21 µM).
Consider `O=C(Cn1sc2ccccc2c1=O)NC12CC3CC(CC(C3)C1)C2` [N-(adamantan-1-yl)-2-(3-oxo-2,3-dihydro-1,2-benzothiazol-2-yl)acetamide], for which the MIC with Staphylococcus aureus was 1 µg/mL (≈ 2.92 µM); in the experiment with S. epidermidis, 0.5 µg/mL (≈ 1.46 µM). Inhibition in experiment [2] was half-maximal at 1.3 µg/mL (≈ 3.8 µM) (IC50). In addition, the “Mode of binding to the active site of SrtA” value at SrtA is on record as “irreversible binding”.
